Assay results: patent US9340590B2 (priority 2011, dated 2016)
Where two headings read alike, the source gives them in different places. Positions of bridges follow the written chain, without caps; N, C: chain ends. Non-standard residues stand in square brackets, D forms with d. Residues, ends and D or L forms follow the SMILES beside them. Abu = CC[C@H](N)C(=O)O

Key:
in vivo [1] = conditions: male, CD-1, mouse, sc, 5 mg/kg, terminal exposure (peptide plasma concentration at 2 h post peptide injection), later studies, 5 mg/kg s.c.
[2] = tested on: locomotor activity in male CD-1 mice; conditions: 5 mg/kg
hNav1.3 [3] = molecular target: T1, hNav1.3 (Homo sapiens, UniProt Q9NY46); experiment: cell-based; conditions: IonWorks Quattro; clamped to −110 mV, depolarized to −10 mV, 5 min after compound; n=2; read-out: IWQ Use Nav1.3
hNav1.5 [4] = molecular target: T2, hNav1.5 (Homo sapiens, UniProt Q14524); experiment: cell-based
T2 sequence (Q14524 whole entry, looked up): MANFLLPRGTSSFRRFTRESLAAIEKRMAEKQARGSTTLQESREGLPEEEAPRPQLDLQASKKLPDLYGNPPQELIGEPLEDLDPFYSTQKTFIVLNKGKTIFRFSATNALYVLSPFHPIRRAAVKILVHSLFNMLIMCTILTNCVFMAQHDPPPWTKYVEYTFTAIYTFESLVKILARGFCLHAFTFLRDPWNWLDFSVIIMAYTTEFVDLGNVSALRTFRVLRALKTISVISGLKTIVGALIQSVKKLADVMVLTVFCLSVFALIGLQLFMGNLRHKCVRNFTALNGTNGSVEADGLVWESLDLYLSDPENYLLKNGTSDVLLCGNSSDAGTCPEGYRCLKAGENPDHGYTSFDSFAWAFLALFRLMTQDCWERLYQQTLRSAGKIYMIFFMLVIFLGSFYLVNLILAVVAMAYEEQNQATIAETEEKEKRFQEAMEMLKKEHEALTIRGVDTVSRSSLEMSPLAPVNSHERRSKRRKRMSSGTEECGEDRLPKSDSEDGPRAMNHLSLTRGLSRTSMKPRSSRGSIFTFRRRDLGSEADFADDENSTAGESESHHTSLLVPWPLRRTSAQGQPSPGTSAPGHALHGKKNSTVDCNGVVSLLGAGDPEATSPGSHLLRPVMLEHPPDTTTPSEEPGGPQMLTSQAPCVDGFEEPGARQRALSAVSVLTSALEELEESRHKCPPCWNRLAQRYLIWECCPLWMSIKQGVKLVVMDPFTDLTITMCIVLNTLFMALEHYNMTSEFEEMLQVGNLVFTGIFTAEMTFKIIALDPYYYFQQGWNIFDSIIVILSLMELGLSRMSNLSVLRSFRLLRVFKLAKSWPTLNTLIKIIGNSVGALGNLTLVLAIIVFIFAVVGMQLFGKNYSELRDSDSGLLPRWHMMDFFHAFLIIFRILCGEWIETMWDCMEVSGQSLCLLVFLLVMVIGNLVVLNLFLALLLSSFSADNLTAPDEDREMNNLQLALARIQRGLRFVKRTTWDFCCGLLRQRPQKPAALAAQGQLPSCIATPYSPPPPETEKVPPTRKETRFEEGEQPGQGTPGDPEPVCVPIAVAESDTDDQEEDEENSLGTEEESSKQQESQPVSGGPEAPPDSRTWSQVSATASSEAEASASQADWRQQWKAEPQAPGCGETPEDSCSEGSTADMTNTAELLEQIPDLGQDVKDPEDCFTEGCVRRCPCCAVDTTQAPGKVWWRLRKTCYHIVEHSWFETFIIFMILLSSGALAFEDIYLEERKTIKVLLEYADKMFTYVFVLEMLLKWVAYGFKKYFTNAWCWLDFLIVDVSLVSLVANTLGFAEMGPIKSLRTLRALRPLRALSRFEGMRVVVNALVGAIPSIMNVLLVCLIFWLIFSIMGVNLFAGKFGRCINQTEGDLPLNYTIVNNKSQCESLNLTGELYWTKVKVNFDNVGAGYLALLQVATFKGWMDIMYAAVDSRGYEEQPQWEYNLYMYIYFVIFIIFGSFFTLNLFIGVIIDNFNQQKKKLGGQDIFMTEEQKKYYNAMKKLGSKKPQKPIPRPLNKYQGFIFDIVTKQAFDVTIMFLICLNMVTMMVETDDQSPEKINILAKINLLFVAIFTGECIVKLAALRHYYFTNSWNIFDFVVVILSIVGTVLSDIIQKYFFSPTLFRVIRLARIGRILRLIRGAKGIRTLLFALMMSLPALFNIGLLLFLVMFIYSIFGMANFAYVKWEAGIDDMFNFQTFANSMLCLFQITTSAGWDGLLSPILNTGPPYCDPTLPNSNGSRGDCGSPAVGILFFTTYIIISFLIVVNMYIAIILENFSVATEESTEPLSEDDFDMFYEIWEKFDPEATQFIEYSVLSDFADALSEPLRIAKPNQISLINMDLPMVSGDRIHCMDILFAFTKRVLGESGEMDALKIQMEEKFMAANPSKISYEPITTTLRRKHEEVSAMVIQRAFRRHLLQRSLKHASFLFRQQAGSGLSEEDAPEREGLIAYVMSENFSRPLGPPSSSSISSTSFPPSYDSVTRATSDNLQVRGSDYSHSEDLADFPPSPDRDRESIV

in vitro [5] = conditions: human, plasma
in vitro [6] = conditions: mouse, plasma
hNav1.7 [7] = molecular target: T3, hNav1.7 (Homo sapiens, UniProt Q15858); experiment: cell-based; conditions: Nav1.7 Use IC50
T3 sequence (Q15858 whole entry, looked up): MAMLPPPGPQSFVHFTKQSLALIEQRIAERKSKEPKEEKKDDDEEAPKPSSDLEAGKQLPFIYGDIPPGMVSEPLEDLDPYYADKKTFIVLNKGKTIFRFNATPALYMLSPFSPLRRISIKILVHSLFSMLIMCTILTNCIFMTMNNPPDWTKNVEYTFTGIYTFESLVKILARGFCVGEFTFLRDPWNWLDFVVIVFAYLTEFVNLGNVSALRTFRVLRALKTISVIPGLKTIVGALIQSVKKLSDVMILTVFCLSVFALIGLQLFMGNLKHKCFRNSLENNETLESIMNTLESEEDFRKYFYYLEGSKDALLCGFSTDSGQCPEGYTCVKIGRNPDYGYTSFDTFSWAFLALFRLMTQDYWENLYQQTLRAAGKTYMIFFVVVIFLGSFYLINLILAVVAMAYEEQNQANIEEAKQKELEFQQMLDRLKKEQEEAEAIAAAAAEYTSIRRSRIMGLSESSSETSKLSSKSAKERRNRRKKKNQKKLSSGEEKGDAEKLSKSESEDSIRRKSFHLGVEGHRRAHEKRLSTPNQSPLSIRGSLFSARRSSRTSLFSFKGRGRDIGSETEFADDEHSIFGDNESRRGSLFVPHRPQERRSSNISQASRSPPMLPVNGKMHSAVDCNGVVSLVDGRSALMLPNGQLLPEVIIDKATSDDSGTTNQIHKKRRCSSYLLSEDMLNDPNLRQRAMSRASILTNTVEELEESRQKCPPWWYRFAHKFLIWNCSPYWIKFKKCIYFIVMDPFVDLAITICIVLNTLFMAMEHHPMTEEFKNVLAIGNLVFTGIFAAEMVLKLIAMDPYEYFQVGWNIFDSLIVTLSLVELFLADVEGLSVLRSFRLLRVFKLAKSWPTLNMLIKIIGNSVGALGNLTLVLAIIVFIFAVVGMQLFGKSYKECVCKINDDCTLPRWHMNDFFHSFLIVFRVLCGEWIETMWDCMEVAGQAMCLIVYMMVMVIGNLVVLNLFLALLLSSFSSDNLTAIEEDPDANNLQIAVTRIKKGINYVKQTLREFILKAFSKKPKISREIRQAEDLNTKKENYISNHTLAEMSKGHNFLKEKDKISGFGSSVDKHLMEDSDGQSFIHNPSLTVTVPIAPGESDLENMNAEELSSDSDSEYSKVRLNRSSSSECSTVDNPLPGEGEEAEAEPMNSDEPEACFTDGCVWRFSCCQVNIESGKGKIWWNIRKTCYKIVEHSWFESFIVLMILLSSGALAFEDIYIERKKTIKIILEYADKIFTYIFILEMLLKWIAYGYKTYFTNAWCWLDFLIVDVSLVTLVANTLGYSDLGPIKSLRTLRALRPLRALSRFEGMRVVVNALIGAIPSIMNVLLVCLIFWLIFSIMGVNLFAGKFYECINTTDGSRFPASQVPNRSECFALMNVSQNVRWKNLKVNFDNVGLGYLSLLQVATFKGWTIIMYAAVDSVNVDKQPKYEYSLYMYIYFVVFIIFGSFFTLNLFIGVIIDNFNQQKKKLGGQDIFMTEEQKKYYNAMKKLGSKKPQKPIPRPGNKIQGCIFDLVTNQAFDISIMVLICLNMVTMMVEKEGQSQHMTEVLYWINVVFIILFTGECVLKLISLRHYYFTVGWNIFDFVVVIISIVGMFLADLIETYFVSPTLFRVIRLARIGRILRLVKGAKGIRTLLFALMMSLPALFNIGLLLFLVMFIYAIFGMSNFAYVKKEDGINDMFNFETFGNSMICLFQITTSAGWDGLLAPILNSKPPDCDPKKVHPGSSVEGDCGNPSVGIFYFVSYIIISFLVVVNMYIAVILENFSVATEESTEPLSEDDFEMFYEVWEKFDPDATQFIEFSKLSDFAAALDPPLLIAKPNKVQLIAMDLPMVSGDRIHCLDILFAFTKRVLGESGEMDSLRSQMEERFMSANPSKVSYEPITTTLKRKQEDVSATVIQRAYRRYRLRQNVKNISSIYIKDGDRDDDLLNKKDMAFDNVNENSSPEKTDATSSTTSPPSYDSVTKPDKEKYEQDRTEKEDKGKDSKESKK

[8] = mouse plasma, 37° C., incubation time 0 hr (normalisation point)
[9] = human plasma, 37° C., incubation time 0 hr (normalisation point)
hNav1.3 [10] = molecular target: T1, hNav1.3; experiment: cell-based; type: cell-based
[11] = rat plasma, 37° C.
hNav1.5 [12] = molecular target: T2, hNav1.5; experiment: cell-based; conditions: read-out: Nav1.5 Use IC50
in vivo [13] = conditions: male, CD-1, mouse, sc, 5 mg/kg, terminal exposure (peptide plasma concentration at 45 min post formalin injection)
hNav1.5 [14] = molecular target: T2, hNav1.5; type: cell-based
hNav1.7 [15] = molecular target: T3, hNav1.7; type: cell-based
hNav1.4 = hNav1.4 (Homo sapiens, UniProt P35499); experiment: cell-based; conditions: read-out: Nav1.4 Use IC50

With `CC[C@@H]1NC(=O)[C@H](CC(=O)O)NC(=O)[C@@H]2CCCN2C(=O)[C@H](CCC(=O)O)NC(=O)[C@@H]2CSSC[C@@H]3NC(=O)[C@H](C(C)C)NC(=O)[C@H](CC(C)C)NC(=O)[C@H](CC(N)=O)NC(=O)[C@@H]4CCCN4C(=O)[C@H](CCCNC(=N)N)NC(=O)[C@H](CSSC[C@H](NC(=O)[C@@H](N)CC(=O)O)C(=O)N[C@@H](CC(C)C)C(=O)NCC(=O)N[C@@H](C)C(=O)N[C@@H](Cc4ccccc4)C(=O)N[C@@H](CCCNC(=N)N)C(=O)N[C@@H](CCCCN)C(=O)N2)NC(=O)[C@H](CSSC[C@@H](C(=O)N[C@@H](CCCCN)C(=O)N[C@@H](Cc2ccc(O)cc2)C(=O)N[C@H](C(=O)N[C@@H](Cc2ccccc2)C(N)=O)C(C)C)NC(=O)[C@H](Cc2c[nH]c4ccccc24)NC(=O)[C@H](CCCNC(=N)N)NC(=O)[C@H](Cc2c[nH]cn2)NC(=O)[C@H](CC(C)C)NC(=O)[C@H](CCCNC(=N)N)NC(=O)[C@H](CO)NC3=O)NC(=O)[C@H](CCCCN)NC(=O)[C@H](CC(=O)O)NC1=O` (H-DCLGAFRKCEPD[Abu]DKCCRPNLVCSRLHRWCKYVF-NH2; disulfide 2-17, 9-23, 16-30) the level at time molar at 2 h (in vivo [1]) was 1720 ± 313 nM and the “behavior of animals in the open field analysis” value [2] was “moribund behavior or lethality”.
In the case of `CC[C@H](C)[C@@H]1NC(=O)[C@@H]2CSSC[C@@H]3NC(=O)[C@H](C(C)C)NC(=O)[C@H](CC(C)C)NC(=O)[C@H](CC(N)=O)NC(=O)[C@@H]4CCCN4C(=O)[C@H](CCCNC(=N)N)NC(=O)[C@H](CSSC[C@H](N)C(=O)N[C@@H](CC(C)C)C(=O)NCC(=O)N[C@@H](Cc4ccccc4)C(=O)N[C@@H](CCSC)C(=O)N[C@@H](CCCNC(=N)N)C(=O)N[C@@H](CCCCN)C(=O)N2)NC(=O)[C@H](CSSC[C@@H](C(=O)N[C@@H](CCCCN)C(=O)N[C@@H](Cc2ccc(O)cc2)C(=O)N[C@H](C(=O)N[C@@H](Cc2ccccc2)C(N)=O)C(C)C)NC(=O)[C@H](Cc2c[nH]c4ccccc24)NC(=O)[C@H](CCCCN)NC(=O)[C@H](Cc2cnc[nH]2)NC(=O)[C@H]([C@@H](C)O)NC(=O)[C@H](CCCNC(=N)N)NC(=O)[C@H](CO)NC3=O)NC(=O)[C@H](CCCCN)NC(=O)[C@H](CC(=O)O)NC(=O)[C@H](CC(N)=O)NC(=O)[C@H](CC(=O)O)NC(=O)[C@@H]2CCCN2C1=O` [SEQ ID NO: 108] (H-CLGFMRKCIPDNDKCCRPNLVCSRTHKWCKYVF-NH2; disulfide 1-16, 8-22, 15-29), the IC50 (hNav1.3 [3]) is reported as 50 nM, the IC50 (hNav1.5 [4]; IonWorks Quattro, clamped to −110 mV, depolarized to −10 mV, 5 min after compound, n=2, read-out: IWQ Use Nav1.5) is reported as 8220 nM and the remaining at 2 h (in vitro [5]) is reported as 107%. For the same compound, the remaining at 4 h (in vitro [5]) was 92%, the remaining at 8 h (in vitro [5]) was 91% and the remaining at 24 h (in vitro [5]) was 82%. The remaining at 2 h (in vitro [6]) was 100%, the remaining at 4 h (in vitro [6]) was 95% and the remaining at 8 h (in vitro [6]) was 87%. For the same compound, the remaining at 24 h (in vitro [6]) was 81%, the IC50 (hNav1.7 [7]) was 7 nM and the “% peptide remaining” value [8] was 100%. The “% peptide remaining” value [9] was 100% and the IC50 (hNav1.3 [10]; Nav1.3 Use IC50) was 15 nM.
Compound `CC[C@H](C)[C@@H]1NC(=O)[C@@H]2CSSC[C@@H]3NC(=O)[C@H](C(C)C)NC(=O)[C@H](CC(C)C)NC(=O)[C@H](CC(N)=O)NC(=O)[C@@H]4CCCN4C(=O)[C@H](CCCNC(=N)N)NC(=O)[C@H](CSSC[C@H](NC(=O)[C@H](CC(=O)O)NC(C)=O)C(=O)N[C@@H](CC(C)C)C(=O)NCC(=O)N[C@@H](Cc4ccccc4)C(=O)N[C@@H](CCSC)C(=O)N[C@@H](CCCNC(=N)N)C(=O)N[C@@H](CCCCN)C(=O)N2)NC(=O)[C@H](CSSC[C@@H](C(=O)N[C@@H](CCCCN)C(=O)N[C@@H](Cc2ccc(O)cc2)C(=O)N[C@H](C(=O)N[C@@H](Cc2ccccc2)C(N)=O)C(C)C)NC(=O)[C@H](Cc2c[nH]c4ccccc24)NC(=O)[C@H](CCCCN)NC(=O)[C@H](Cc2cnc[nH]2)NC(=O)[C@H]([C@@H](C)O)NC(=O)[C@H](CCCNC(=N)N)NC(=O)[C@H](CO)NC3=O)NC(=O)[C@H](CCCCN)NC(=O)[C@H](CC(=O)O)NC(=O)[C@H](CC(N)=O)NC(=O)[C@H](CC(=O)O)NC(=O)[C@@H]2CCCN2C1=O` [SEQ ID NO: 132] has an IC50 (hNav1.3 [3]) of 220 nM, an IC50 (hNav1.5 [4]; IWQ Use Nav1.5) of 12700 nM and a remaining at 2 h (in vitro [5]) of 100%. The remaining at 4 h (in vitro [5]) was 104%, the remaining at 8 h (in vitro [5]) was 101% and the remaining at 24 h (in vitro [5]) was 97%. It also gave a remaining at 2 h (in vitro [6]) of 105%, a remaining at 4 h (in vitro [6]) of 103% and a remaining at 8 h (in vitro [6]) of 103%. For the same compound, the remaining at 24 h (in vitro [6]) was 106%, the “% peptide remaining” value [8] was 100% and the “% peptide remaining” value [9] was 100%. For the same compound, the IC50 (hNav1.3 [10]; Nav1.3 Use IC50) was 84 nM.
With `CSCC[C@@H]1NC(=O)[C@H](Cc2ccccc2)NC(=O)CNC(=O)[C@H](CC(C)C)NC(=O)[C@@H](NC(=O)[C@@H](N)CC(=O)O)CSSC[C@@H]2NC(=O)[C@@H]3CSSC[C@@H](C(=O)N[C@@H](CCCCN)C(=O)N[C@@H](Cc4ccc(O)cc4)C(=O)N[C@H](C(=O)N[C@@H](Cc4ccccc4)C(N)=O)C(C)C)NC(=O)[C@H](Cc4c[nH]c5ccccc45)NC(=O)[C@H](CCCCN)NC(=O)[C@H](Cc4c[nH]cn4)NC(=O)[C@H]([C@@H](C)O)NC(=O)[C@H](CCCNC(=N)N)NC(=O)[C@H](CO)NC(=O)[C@H](CSSC[C@H](NC(=O)[C@H](CCCCN)NC(=O)[C@H](CCCNC(=N)N)NC1=O)C(=O)N[C@@H](Cc1cccc4ccccc14)C(=O)N1CCC[C@H]1C(=O)N[C@@H](CC(=O)O)C(=O)N[C@@H](CC(N)=O)C(=O)N[C@@H](CC(=O)O)C(=O)N[C@@H](CCCCN)C(=O)N3)NC(=O)[C@H](C(C)C)NC(=O)[C@H](CC(C)C)NC(=O)[C@H](CC(N)=O)NC(=O)[C@@H]1CCCN1C(=O)[C@H](CCCNC(=N)N)NC2=O` [[1-Nal10]GpTx-1(1-34)] the IC50 (hNav1.7 [7]) was 5 nM, the “% peptide remaining” value ([11]; incubation time 0 hr) was 100% and the “% peptide remaining” value ([11]; incubation time 2 hr) was 104%. The “% peptide remaining” value ([11]; incubation time 4 hr) was 106%, the “% peptide remaining” value ([11]; incubation time 6 hr) was 108% and the “% peptide remaining” value ([11]; incubation time 8 hr) was 112%. For the same compound, the “% peptide remaining” value ([11]; incubation time 24 hr) was 89%, the IC50 (hNav1.5 [12]) was 12900 nM and the IC50 (hNav1.3 [10]; Nav1.3 Use IC50) was 39 nM.
For `CC[C@H](C)[C@@H]1NC(=O)[C@@H]2CSSC[C@@H]3NC(=O)[C@H](C(C)C)NC(=O)[C@H](CC(C)C)NC(=O)[C@H](CC(N)=O)NC(=O)[C@@H]4CCCN4C(=O)[C@H](CCCNC(=N)N)NC(=O)[C@H](CSSC[C@H](NC(=O)[C@@H](N)CC(=O)O)C(=O)N[C@@H](CC(C)C)C(=O)NCC(=O)N[C@@H](Cc4ccccc4)C(=O)N[C@@H](CCSC)C(=O)N[C@@H](CCCNC(=N)N)C(=O)N[C@@H](CCCCN)C(=O)N2)NC(=O)[C@H](CSSC[C@@H](C(=O)N[C@@H](CCCCN)C(=O)N[C@@H](Cc2ccc(O)cc2)C(=O)N[C@H](C(=O)N[C@@H](Cc2ccccc2)C(N)=O)C(C)C)NC(=O)[C@H](Cc2c[nH]c4ccccc24)NC(=O)[C@H](CCC(=O)O)NC(=O)[C@H](Cc2cnc[nH]2)NC(=O)[C@H]([C@@H](C)O)NC(=O)[C@H](CCCNC(=N)N)NC(=O)[C@H](CO)NC3=O)NC(=O)[C@H](CCCCN)NC(=O)[C@H](CC(=O)O)NC(=O)[C@H](CC(N)=O)NC(=O)[C@H](CC(=O)O)NC(=O)[C@@H]2CCCN2C1=O` [[Glu28]GpTx-1(1-34)] (H-DCLGFMRKCIPDNDKCCRPNLVCSRTHEWCKYVF-NH2; disulfide 2-17, 9-23, 16-30), the level at time molar at 2 h (in vivo [1]) was 1280 ± 403 nM and the IC50 (hNav1.7 [7]) was 26 nM.
`CC[C@H](C)[C@@H]1NC(=O)[C@@H]2CSSC[C@@H]3NC(=O)[C@H](C(C)C)NC(=O)[C@H](CC(C)C)NC(=O)[C@H](CC(N)=O)NC(=O)[C@@H]4CCCN4C(=O)[C@H](CCCNC(=N)N)NC(=O)[C@H](CSSC[C@H](NC(=O)[C@@H](N)CC(=O)O)C(=O)N[C@@H](CC(C)C)C(=O)NCC(=O)N[C@@H](Cc4ccccc4)C(=O)N[C@@H](CCSC)C(=O)N[C@@H](CCCNC(=N)N)C(=O)N[C@@H](CCCCN)C(=O)N2)NC(=O)[C@H](CSSC[C@@H](C(=O)N[C@@H](CCCCN)C(=O)N[C@@H](Cc2ccc(O)cc2)C(=O)N[C@H](C(=O)N[C@@H](Cc2ccccc2)C(N)=O)C(C)C)NC(=O)[C@H](CCC(=O)O)NC(=O)[C@H](CCCCN)NC(=O)[C@H](Cc2cnc[nH]2)NC(=O)[C@H]([C@@H](C)O)NC(=O)[C@H](CCCNC(=N)N)NC(=O)[C@H](CO)NC3=O)NC(=O)[C@H](CCCCN)NC(=O)[C@H](CC(=O)O)NC(=O)[C@H](CC(N)=O)NC(=O)[C@H](CC(=O)O)NC(=O)[C@@H]2CCCN2C1=O` [[Glu29]GpTx-1(1-34)] (H-DCLGFMRKCIPDNDKCCRPNLVCSRTHKECKYVF-NH2; disulfide 2-17, 9-23, 16-30) showed a level at time molar at […] (in vivo [13]) of 502 ± 271 nM and a level at time molar at 2 h (in vivo [1]) of 771 ± 272 nM.
With “[Phe6,Atz(2 kDa EtO-PEG*-{[Phe6,Atz13*]GpTx-1(1-34)}) 13]GpTx-1(1-34) [Homodimeric Conjugate 1]” the “inhibition of the Nav1.5 current” value (hNav1.5 [14]) was “complete inhibition”, the IC50 (hNav1.5 [14]; read-out: IC50 against hNav1.5 sodium channels) was 75.5 nM and the IC50 (hNav1.5 [14]; read-out: IC50 against hNav1.5 sodium channels, partially inactivated) was 57 nM. For the same compound, the “inhibition of the Nav1.7 current” value (hNav1.7 [15]) was “complete inhibition”, the IC50 (hNav1.5 [12]) was 1430 nM and the IC50 (hNav1.3 [10]; read-out: Nav1.3 Use IC50) was 8 nM. The IC50 (hNav1.4) was 254 nM.
